Laboratory results reported in patent US20240067693A1, “POLYPEPTIDES AND USES THEREOF” (MEDIMMUNE LIMITED, priority 2020, published 2024).
Numbered stars: 1 amine (or outer) side, 2 acyl side, 3 side chain; on linkers, the order of the positions; unused ones are H or OH. Bridge positions count the residues as written; N and C are the ends. Square brackets hold non-standard residues; d marks the D form. Side chains are listed from the residue outwards. Peptide text beside a SMILES is read from it. * marks the point of attachment. C18 diacid = O=C(O)CCCCCCCCCCCCCCCCC(=O)*; γGlu = O=C(O)[C@H](CCC(=O)[*:2])N[*:1]; Aib = CC(C)(N)C(=O)O

Columns and labels:
[1] = target: T1, human calcitonin receptor (hCTR) (Homo sapiens, UniProt P30988); assay: cAMP production in 1321N1 cells with stable recombinant expression of human calcitonin receptor (hCTR); format: cell-based; conditions: cAMP, 1321N1 cells, assay buffer with 0.1% BSA; read-out: EC50 (pM) hCTR
T1 construct: expressed in transfected cells
T1 sequence (P30988 25-474): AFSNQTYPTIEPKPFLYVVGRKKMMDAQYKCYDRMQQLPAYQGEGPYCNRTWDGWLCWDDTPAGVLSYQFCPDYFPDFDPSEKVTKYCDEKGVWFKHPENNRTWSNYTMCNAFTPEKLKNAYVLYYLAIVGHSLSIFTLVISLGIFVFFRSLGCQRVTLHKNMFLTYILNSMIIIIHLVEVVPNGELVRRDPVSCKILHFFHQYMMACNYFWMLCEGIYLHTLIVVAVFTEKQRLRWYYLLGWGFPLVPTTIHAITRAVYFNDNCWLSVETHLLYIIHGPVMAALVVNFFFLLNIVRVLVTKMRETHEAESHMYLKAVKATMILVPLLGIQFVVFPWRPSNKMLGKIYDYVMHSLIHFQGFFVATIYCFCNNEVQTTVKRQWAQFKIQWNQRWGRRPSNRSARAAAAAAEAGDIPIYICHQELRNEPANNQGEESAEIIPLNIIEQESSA
In short: (§1)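 Thawed cells in HBSS/0.1% BSA/25 mM HEPES pH 7.4 with 0.5 mM IBMX were incubated with peptides 30 min at room temperature; cAMP read by HTRF. EC50 from 4-parameter fit of % activation relative to maximal amylin or calcitonin effect.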

[2] = target: T2, human amylin receptor (calcitonin receptor co-expressed with receptor activity modifying protein, RAMP3) (hAMYR3) (Homo sapiens, UniProt O60896+P30988); assay: cAMP production in 1321N1 cells with stable recombinant expression of human amylin receptor (hAMYR3); format: cell-based; conditions: for Ratio (selectivity hAMYR vs hCTR, ratio of EC50 values at the two receptors): EC50 hCTR / EC50 hAMYR3; for EC50: cAMP, 1321N1 cells, assay buffer with 0.1% BSA, read-out: EC50 (pM) hAMYR3
T2 construct: expressed in transfected cells
T2 sequence (P30988 25-474): T1 sequence (P30988 25-474)
T2 sequence (O60896 24-148 partner): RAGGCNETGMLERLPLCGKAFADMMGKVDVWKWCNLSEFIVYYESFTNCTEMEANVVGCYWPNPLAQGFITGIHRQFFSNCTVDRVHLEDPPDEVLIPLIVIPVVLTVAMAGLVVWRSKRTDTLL
In short: as §1

| Compound | EC50 [1] | Ratio (selectivity hAMYR vs hCTR, ratio of EC50 values at the two receptors) [2] | EC50 [2] |
| --- | --- | --- | --- |
| CC[C@H](C)[C@H](NC(=O)[C@@H]1CCCN1C(=O)CNC(=O)[C@H](Cc1ccccc1)NC(=O)[C@H](CC(N)=O)NC(=O)[C@H](CC(N)=O)NC(=O)[C@H](CO)NC(=O)[C@H](CO)NC(=O)[C@H](Cc1c[nH]cn1)NC(=O)C(C)(C)NC(=O)[C@H](CC(C)C)NC(=O)[C@H](Cc1ccccc1)NC(=O)[C@H](CC(N)=O)NC(=O)[C@H](C)NC(=O)[C@H](CC(C)C)NC(=O)[C@H](CCCNC(=N)N)NC(=O)[C@H](CCC(N)=O)NC(=O)[C@@H](NC(=O)[C@H](C)NC(=O)[C@@H]1CSSC[C@H](NC(=O)[C@H](CCCCN)NC(=O)[C@@H](N)CCCCNC(=O)CC[C@H](NC(=O)CCCCCCCCCCCCCCCCC(=O)O)C(=O)O)C(=O)N[C@@H](CC(N)=O)C(=O)N[C@@H]([C@@H](C)O)C(=O)N[C@@H](C)C(=O)N[C@@H]([C@@H](C)O)C(=O)N1)[C@@H](C)O)C(=O)N[C@@H](CC(C)C)C(=O)N1CCC[C@H]1C(=O)N1CCC[C@H]1C(=O)N[C@H](C(=O)N[C@@H](CC(N)=O)C(=O)N[C@H](C(=O)NCC(=O)N[C@@H](CO)C(=O)NC(C)(C)C(=O)N[C@H](C(=O)N[C@@H](Cc1ccc(O)cc1)C(N)=O)[C@@H](C)O)C(C)C)[C@@H](C)O [Peptide 102, K(γE-C18diacid)K[CNTATC]ATQRLANFL(Aib)HSSNNFGPILPPTNVGS(Aib)TY-amide] (H-K([γGlu-C18 diacid])KCNTATCATQRLANFL[Aib]HSSNNFGPILPPTNVGS[Aib]TY-NH2; disulfide 3-8) | 1630 pM | 3 | 479 pM |
| CC(C)C[C@H](NC(=O)[C@H](CCCNC(=N)N)NC(=O)[C@H](CCC(N)=O)NC(=O)[C@@H](NC(=O)[C@H](C)NC(=O)[C@@H]1CSSC[C@H](NC(=O)[C@H](CCCCN)NC(=O)[C@@H](N)CCCCNC(=O)CC[C@H](NC(=O)CCCCCCCCCCCCCCCCC(=O)O)C(=O)O)C(=O)N[C@@H](CC(N)=O)C(=O)N[C@@H]([C@@H](C)O)C(=O)N[C@@H](C)C(=O)N[C@@H]([C@@H](C)O)C(=O)N1)[C@@H](C)O)C(=O)N[C@@H](C)C(=O)N[C@@H](CC(N)=O)C(=O)N[C@@H](Cc1ccccc1)C(=O)N[C@@H](CC(C)C)C(=O)N[C@H](C(=O)N[C@@H](Cc1c[nH]cn1)C(=O)N[C@@H](CO)C(=O)N[C@@H](CO)C(=O)N[C@@H](CC(N)=O)C(=O)N[C@@H](CC(N)=O)C(=O)N[C@@H](Cc1ccccc1)C(=O)NCC(=O)N1CCC[C@H]1C(=O)NC(C)(C)C(=O)N[C@@H](CC(C)C)C(=O)N1CCC[C@H]1C(=O)N1CCC[C@H]1C(=O)N[C@H](C(=O)N[C@@H](CC(N)=O)C(=O)N[C@H](C(=O)NCC(=O)N[C@@H](CO)C(=O)N[C@@H](CC(N)=O)C(=O)N[C@H](C(=O)N[C@@H](Cc1ccc(O)cc1)C(N)=O)[C@@H](C)O)C(C)C)[C@@H](C)O)C(C)C [Peptide 106, K(γE-C18diacid)K[CNTATC]ATQRLANFLVHSSNNFGP(Aib)LPPTNVGSNTY-amide] (H-K([γGlu-C18 diacid])KCNTATCATQRLANFLVHSSNNFGP[Aib]LPPTNVGSNTY-NH2; disulfide 3-8; N-terminus assumed) | 3420 pM | 7 | 473 pM |
| CC(C)C[C@H](NC(=O)[C@H](CCCNC(=N)N)NC(=O)[C@H](CCC(N)=O)NC(=O)[C@@H](NC(=O)[C@H](C)NC(=O)[C@@H]1CSSC[C@H](NC(=O)[C@H](CCCCN)NC(=O)[C@@H](N)CCCCNC(=O)CC[C@H](NC(=O)CCCCCCCCCCCCCCCCC(=O)O)C(=O)O)C(=O)N[C@@H](CC(N)=O)C(=O)N[C@@H]([C@@H](C)O)C(=O)N[C@@H](C)C(=O)N[C@@H]([C@@H](C)O)C(=O)N1)[C@@H](C)O)C(=O)N[C@@H](C)C(=O)N[C@@H](CC(N)=O)C(=O)N[C@@H](Cc1ccccc1)C(=O)N[C@@H](CC(C)C)C(=O)N[C@@H](CCCNC(=N)N)C(=O)N[C@@H](Cc1c[nH]cn1)C(=O)N[C@@H](CO)C(=O)N[C@@H](CO)C(=O)N[C@@H](CC(N)=O)C(=O)N[C@@H](CC(N)=O)C(=O)N[C@@H](Cc1ccccc1)C(=O)NCC(=O)N1CCC[C@H]1C(=O)NC(C)(C)C(=O)N[C@@H](CC(C)C)C(=O)N1CCC[C@H]1C(=O)N1CCC[C@H]1C(=O)N[C@H](C(=O)N[C@@H](CC(N)=O)C(=O)N[C@H](C(=O)NCC(=O)N[C@@H](CO)C(=O)N[C@@H](CC(N)=O)C(=O)N[C@H](C(=O)N[C@@H](Cc1ccc(O)cc1)C(N)=O)[C@@H](C)O)C(C)C)[C@@H](C)O [Peptide 107, K(γE-C18diacid)K[CNTATC]ATQRLANFLRHSSNNFGP(Aib)LPPTNVGSNTY-amide] (H-K([γGlu-C18 diacid])KCNTATCATQRLANFLRHSSNNFGP[Aib]LPPTNVGSNTY-NH2; disulfide 3-8; N-terminus assumed) | 26300 pM | 25 | 1070 pM |
| CC[C@H](C)[C@H](NC(=O)[C@@H]1CCCN1C(=O)CNC(=O)[C@H](Cc1ccccc1)NC(=O)[C@H](CC(N)=O)NC(=O)[C@H](CC(N)=O)NC(=O)[C@H](CO)NC(=O)[C@H](CO)NC(=O)[C@H](Cc1c[nH]cn1)NC(=O)[C@@H](NC(=O)[C@H](CC(C)C)NC(=O)[C@H](Cc1ccccc1)NC(=O)[C@H](CC(N)=O)NC(=O)[C@H](C)NC(=O)[C@H](CC(C)C)NC(=O)[C@H](CCCNC(=N)N)NC(=O)[C@H](CCC(N)=O)NC(=O)[C@@H](NC(=O)[C@H](C)NC(=O)[C@@H]1CSSC[C@H](NC(=O)[C@H](CCCCN)NC(=O)[C@@H](N)CCCCNC(=O)CC[C@H](NC(=O)CCCCCCCCCCCCCCCCC(=O)O)C(=O)O)C(=O)N[C@@H](CC(N)=O)C(=O)N[C@@H]([C@@H](C)O)C(=O)N[C@@H](C)C(=O)N[C@@H]([C@@H](C)O)C(=O)N1)[C@@H](C)O)C(C)C)C(=O)NC(C)(C)C(=O)N1CCC[C@H]1C(=O)N1CCC[C@H]1C(=O)N[C@H](C(=O)N[C@@H](CC(N)=O)C(=O)N[C@H](C(=O)NCC(=O)N[C@@H](CO)C(=O)N[C@@H](CC(N)=O)C(=O)N[C@H](C(=O)N[C@@H](Cc1ccc(O)cc1)C(N)=O)[C@@H](C)O)C(C)C)[C@@H](C)O [Peptide 108, K(γE-C18diacid)K[CNTATC]ATQRLANFLVHSSNNFGPI(Aib)PPTNVGSNTY-amide] (H-K([γGlu-C18 diacid])KCNTATCATQRLANFLVHSSNNFGPI[Aib]PPTNVGSNTY-NH2; disulfide 3-8; N-terminus assumed) | 6810 pM | 8 | 801 pM |
| CC[C@H](C)[C@H](NC(=O)[C@@H]1CCCN1C(=O)CNC(=O)[C@H](Cc1ccccc1)NC(=O)C(C)(C)NC(=O)[C@H](CC(N)=O)NC(=O)[C@H](CO)NC(=O)[C@H](CO)NC(=O)[C@H](Cc1c[nH]cn1)NC(=O)[C@@H](NC(=O)[C@H](CC(C)C)NC(=O)[C@H](Cc1ccccc1)NC(=O)[C@H](CC(N)=O)NC(=O)[C@H](C)NC(=O)[C@H](CC(C)C)NC(=O)[C@H](CCCNC(=N)N)NC(=O)[C@H](CCC(N)=O)NC(=O)[C@@H](NC(=O)[C@H](C)NC(=O)[C@@H]1CSSC[C@H](NC(=O)[C@H](CCCCN)NC(=O)[C@@H](N)CCCCNC(=O)CC[C@H](NC(=O)CCCCCCCCCCCCCCCCC(=O)O)C(=O)O)C(=O)N[C@@H](CC(N)=O)C(=O)N[C@@H]([C@@H](C)O)C(=O)N[C@@H](C)C(=O)N[C@@H]([C@@H](C)O)C(=O)N1)[C@@H](C)O)C(C)C)C(=O)N[C@@H](CC(C)C)C(=O)N1CCC[C@H]1C(=O)N1CCC[C@H]1C(=O)N[C@H](C(=O)N[C@@H](CC(N)=O)C(=O)N[C@H](C(=O)NCC(=O)N[C@@H](CO)C(=O)N[C@@H](CC(N)=O)C(=O)N[C@H](C(=O)N[C@@H](Cc1ccc(O)cc1)C(N)=O)[C@@H](C)O)C(C)C)[C@@H](C)O [Peptide 109, K(γE-C18diacid)K[CNTATC]ATQRLANFLVHSSN(Aib)FGPILPPTNVGSNTY-amide] (H-K([γGlu-C18 diacid])KCNTATCATQRLANFLVHSSN[Aib]FGPILPPTNVGSNTY-NH2; disulfide 3-8; N-terminus assumed) | 176 pM | 2 | 82 pM |
